Source: patent publication US20090105349A1, “ANDROGEN MODULATORS” (WARNER-LAMBERT COMPANY LLC, priority 2004, published 2009)
Where two headings read alike, the source gives them in different places.

Assays:
[1] = system: male Syrian hamsters (ear sebaceous glands, sebum); assay: Animal model for inhibition of sebum production (hamster ear); type: in vivo, Syrian hamster; details: 3 % w/v, 4 weeks; for % CE Reduction / % WE Reduction: Vehicle #1 (polyethylene glycol/transcutol/ethanol 20/20/60), topical twice daily, vs vehicle control; for % WE & CE Reduction: Vehicle #1, topical twice daily, sum of WE and CE
Method: Arch. Derm. […] This model uses male Syrian hamsters, whose ears contain sebaceous glands.
Testing for sebum inhibition was carried out in the following manner. Male Syrian hamsters aged 9 to 10 weeks were introduced into the laboratory environment and acclimated for 2 weeks prior to use in the study. Each group consisted of 5 animals and run in parallel with vehicle and positive controls. Prior to administration, a sufficient quantity each compound was dissolved in 1 mL of the vehicle identified in Table III to achieve the final concentration reported in Table Ill.
Animals were dosed topically twice daily, five days a week, for 4 weeks. Each dose consisted of 25 micro liters of vehicle control or drug. The dose was applied to the ventral surfaces of both the right and left ears. All animals were sacrificed approximately 18-24 hours after the final dose. The right ears were collected from each animal and used for sebum analysis.
The ears were prepped for HPLC analysis in the following manner. One 8 mm distal biopsy punch was taken, just above the anatomical “V” mark in the ear to normalize the sample area. The punch was pulled apart. The ventral biopsy surface (the area where the topical dose was directly applied to the sebaceous glands) was retained for testing and the dorsal surface of the biopsy punch was discarded.
Tissue samples were blown with N2 gas and stored at −80° C. under nitrogen until HPLC analysis. In addition to ear samples, an aliquot of each drug and vehicle (at least 250 ul) was also stored at −80° C. for inclusion in the HPLC analysis.
HPLC analysis was carried out on an extract of the tissue sample. Tissue samples were contacted with 3 ml of solvent (a 4:1 admixture of 2,2,4-trimethylpentane and isopropyl alcohol). The mixture was shaken for 15 minutes and stored overnight at room temperature, protected from light. The next morning 1 milliliter of water was added to the sample and shaken for 15 minutes. The sample was then centrifuged at approximately 1500 rpm for 15 minutes. Two ml of the organic phase (top layer) was transferred to a glass vial, dried at 37° C., under nitrogen, for approximately 1 hour, and then lyophilized for approximately 48 hours. The samples were then removed from the lyophilizer and each vial was reconstituted with 600 μl of solvent A (trimethylpentane/tetrahydrofuran (99:1). The samples were then recapped and vortexed for 5 minutes.
200 μl of each sample was then transferred to a pre-labeled 200 μl HPLC vial with 200 μL glass inserts. The HPLC vials were placed in the autosampler tray for the Agilent 1100 series HPLC unit. The Agilent 1100 HPLC system consisted of a thermostated autosampler, a quarternary pump, a column heater, and an A/D interface module. All components were controlled by Agilent ChemStation software. A Waters Spherisorb S3W 4.6×100 mm analytical column was maintained at 30° C. by the Agilent column heater unit. The HPLC autosampler was programmed to maintain the sample temperature at 20 C throughout the run.
10 uL of each sample was injected in triplicate into the column. Two solvents were used for the solvent gradient. Solvent A was an admixture of trimethylpentane and tetrahydrofuran (99:1). Solvent B was ethylacetate. The gradient utilized is described in the table below: […]
The Sedex 75 Evaporative Light Scattering Detector (ELSD) was operated at 45° C. with a gain of 5, and N2 pressure maintained at 3.1 bar. Analog signal obtained by the instrument was sent to the Agilent A/D interface module where it was converted to a digital output. The conversion was based on a 10000 mAU/volt set point and the data rate was set at 10 Hz (0.03 min). The resulting digital output was then feed into the Agilent ChemStation software for integration of the peak area.

[2] = system: male C3H/HeN mice (telogen to anagen conversion); type: in vivo
Source text: While this model is a significant improvement over the telogen conversion assay as a model for human baldness, it suffers from a number of practical disadvantages. The macaques are expensive, relatively rare, labor intensive to maintain, and require long wash out periods between testing. […] Thus, the model relates to a modification of the existing telogen conversion assay. Male C3H/HeN mice approximately 7 weeks old are utilized. These animals are also uniformly in telogen, like their female counterparts. However, once shaven, the androgens inherently present in these male mice inhibit the conversion of the hair follicles to the anagen phase. An anti-androgen will block this androgenic effect and the follicles will convert to anagen, like their female counterparts.
The compounds shown below in Table IV were submitted for further testing utilizing the modified telogen conversion assay, described above. The testing was carried out in the following manner.
Male C3H/HeN mice, 6 to 7 weeks old (Charles River Laboratories, Raleigh, N.C.) were used for the study. Fur was clipped from the dorsal region of the mice prior to initiation of the study. Only mice with pink skin, a visual indication of the telogen phase, were selected for inclusion in the study.
A second group of animals received only the vehicle to serve as a control. Treatments were applied twice daily for 4 weeks.
The hair growth response was quantified by recording, for each animal, the day on which signs of hair growth first appeared over the treated area. The first sign of anagen was the darkening of skin color as melanocytes in the follicles started to synthesize melanin in preparation for the production of pigmented hairs. […] The day on which anagen was initiated in 50% of the test animals for both the treatment group and the vehicle group is reported below in Table IV.

[3] = system: spinal BMD; details: after 7 years of treatment; cited from earlier work

Row | Compound | % CE Reduction [1] | % WE Reduction [1] | % WE & CE Reduction [1] | Anagen-Trx (day on which anagen was initiated in 50% of the test animals) ([2]; 3 % w/v, Vehicle #2 (polyethylene glycol/ethanol 30/70), topical twice daily for 4 weeks) | Anagen-Trx (day on which anagen was initiated in 50% of the test animals) ([2]; 1 % w/v, Vehicle #2, topical twice daily for 4 weeks) | Anagen-Trx (day on which anagen was initiated in 50% of the test animals) ([2]; 5 % w/v, Vehicle #2, topical twice daily for 4 weeks) | increase in spinal BMD [3]
1 | Cc1ccccc1Oc1ccc(C#N)cc1Cl [Example 4, 3-Chloro-4-o-tolyloxy-benzonitrile] | 76% | 90% | 166% | >35 days | – | – | –
2 | Cc1ccccc1Oc1ccc(C#N)c(Cl)c1 [Example 7, 2-Chloro-4-o-tolyloxy-benzonitrile] | 71% | 87% | 158% | – | >60 days | 35 days | –
3 | NCCCC(O)(P(=O)(O)O)P(=O)(O)O [alendronate] | – | – | – | – | – | – | ≤ 11%
